Results on 45 molecules are retold here after ChEMBL document CHEMBL3727374, “Compounds, pharmaceutical compositions, and methods of treating or preventing neurodegenerative diseases or disorders” (2012).

Active and inactive are the calls of the source. No cut-off for these calls is given here. Where only a bound is given, the exact number is not on record here.

The first series deals with STHdhQ111. Description: Cytoprotective activity in mouse STHdhQ111 cells assessed as protection against H2O2-induced cell death at 10 nM to 1 uM by MTT assay. The format is functional, cell-based.
Conditions: not given
Background: Formazan colour is commonly taken as a measure of viable cells.
`CC(=O)c1cccc(-c2csc3ncnc(Sc4nnnn4C)c23)c1`: the outcome was Active.

Test system in the next series: not listed separately
Description: Stability in mouse liver microsomes assessed as parent compound remaining at 5 uM incubated for 60 mins in absence of NADPH. It counts as ADME. To be noted: read-out: Stability.
As for `Cn1nnnc1Sc1ncnc2scc(-c3cccc(S(C)(=O)=O)c3)c12`, the remaining at 1 h, 5 µM was 89%.

Test system in the next series: not listed separately
Description: Stability in mouse liver microsomes assessed as parent compound remaining at 1 uM incubated for 60 mins in presence of NADPH. The format is ADME. To be noted: read-out: Stability. In general terms: Microsomes from liver hold many membrane-bound enzymes, among them those of drug oxidation.
On to `CC(=O)c1ccc(-c2csc3ncnc(Sc4nnnn4C)c23)cc1`, for which the remaining at 1 h, 1 µM is 2%.

In the case of `Cn1nnnc1Sc1ncnc2scc(-c3cccs3)c12`, the remaining at 1 h, 1 µM worked out at 0%.

Another series has as its target T1, Phosphatidylinositol 5-phosphate 4-kinase type-2 gamma (Homo sapiens, UniProt Q8TBX8).
T1 sequence (Q8TBX8 whole entry): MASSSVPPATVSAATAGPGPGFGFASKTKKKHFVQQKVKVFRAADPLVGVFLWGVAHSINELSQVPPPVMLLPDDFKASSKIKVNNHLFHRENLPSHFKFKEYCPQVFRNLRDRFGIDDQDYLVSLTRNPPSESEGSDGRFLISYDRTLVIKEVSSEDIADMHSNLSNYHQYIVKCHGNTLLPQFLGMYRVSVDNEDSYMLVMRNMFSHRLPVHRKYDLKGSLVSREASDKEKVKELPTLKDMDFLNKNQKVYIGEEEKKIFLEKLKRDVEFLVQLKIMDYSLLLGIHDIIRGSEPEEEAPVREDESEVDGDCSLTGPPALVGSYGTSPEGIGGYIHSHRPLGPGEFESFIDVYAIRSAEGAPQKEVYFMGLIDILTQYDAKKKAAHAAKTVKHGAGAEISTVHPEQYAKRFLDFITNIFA
Description: Inhibition of PIP5K2C (unknown origin).
Conditions: not given
In the case of `Cn1nnnc1Sc1ncnc2scc(-c3cccc(C(F)(F)F)c3)c12`, binding was put at a Kd of 6.3 µM.

As for `Cn1nnnc1Sc1ncnc2scc(-c3ccccc3)c12`, the Kd – broadly, the concentration at which binding is half-saturated – was determined as 3.55 µM.

For the molecule `Cn1nnnc1Sc1ncnc2scc(-c3ccc[nH]3)c12`, the Kd is 5.62 µM.

As for `Cn1nnnc1Sc1ncnc2scc(-c3ccccc3F)c12`, binding was characterised by a dissociation constant (Kd) of 6.31 µM. The Kd values of the last two molecules are within 1.5-fold of each other.

The molecule `COc1ccc(-c2csc3ncnc(Sc4nnnn4C)c23)cc1` yielded a Kd of 11.2 µM.

The molecule `Cn1nnnc1Sc1ncnc2scc(-c3cccc([N+](=O)[O-])c3)c12` had a Kd of 1.58 µM.

For the molecule `COc1cccc(-c2csc3ncnc(Sc4nnnn4C)c23)c1`, the affinity, expressed as Kd, was 3.98 µM.

`Cn1nnnc1Sc1ncnc2scc(-c3ccc4c(c3)OCO4)c12` gave a Kd of 12.6 µM.

In turn, `Cn1nnnc1Sc1ncnc2scc(-c3cccc4c3sc3ccccc34)c12` displayed a Kd of more than 100 µM.

The molecule `Cn1nnnc1Sc1ncnc2scc(-c3cccc(N)c3)c12` came in with a Kd of 3.98 µM.

`Cn1nnnc1Sc1ncnc2scc(-c3cccc(C#N)c3)c12` showed a Kd of 2.51 µM.

As to `Cn1nnnc1Sc1ncnc2scc(-c3ccc(-c4ccccc4)cc3)c12`, the Kd was more than 100 µM.

`Cn1nnnc1Sc1ncnc2scc(-c3cccc(Cl)c3)c12`: the Kd worked out at 11.2 µM.

In turn, `Cn1nnnc1Sc1ncnc2scc(-c3ccccc3C#N)c12` showed a Kd of 6.3 µM. Against the preceding molecule, the Kd is about 1.8-fold lower.

Turning to `Cn1nnnc1Sc1ncnc2scc(-c3ccccc3Cl)c12`, the Kd came out at 14.1 µM.

For the molecule `Cn1nnnc1Sc1ncnc2scc(Br)c12`, the Kd was found to be 1.12 µM.

In the case of `Cc1ccc(-c2csc3ncnc(Sc4nnnn4C)c23)cc1`, binding was put at a Kd of 14.1 µM.

In the case of `Cn1nnnc1Sc1ncnc2scc(I)c12`, the Kd came out at 0.89 µM.

Take `Cn1nnnc1Sc1ncnc2scc(-c3ccc(C(=O)OC(C)(C)C)cc3)c12`: the Kd was more than 100 µM.

The molecule `Cn1nnnc1Sc1ncnc2scc(-c3cccc(Br)c3)c12` gave a Kd of 2.82 µM.

With `Cn1nnnc1Sc1ncnc2scc(-c3ccc(S(C)(=O)=O)cc3)c12`, the dissociation constant Kd came out at 7.94 µM. This Kd lies about 2.8-fold higher than the previous one.

In the case of `Cn1nnnc1Sc1ncnc2scc(-c3cccc(F)c3)c12`, the Kd was found to be 6.31 µM.

With `CC(=O)c1ccccc1-c1csc2ncnc(Sc3nnnn3C)c12`, the Kd is 44.7 µM.

Consider `Cn1nnnc1Sc1ncnc2scc(-c3cccc(S(C)(=O)=O)c3)c12`, for which the Kd was found to be 0.63 µM.

On to `Cn1nnnc1Sc1ncnc2scc(-c3ccccc3C(F)(F)F)c12`, for which binding was characterised by a dissociation constant (Kd) of 63.1 µM.

Molecule `Cn1nnnc1Sc1ncnc2scc(-c3ccsc3)c12` returned a Kd of 7.94 µM. Against the preceding molecule, the Kd is about 7.9-fold lower.

With `Cn1nnnc1Sc1ncnc2scc(-c3ccc(C(F)(F)F)cc3)c12`, the equilibrium dissociation constant (Kd) was more than 100 µM.

Molecule `Cn1nnnc1Sc1ncnc2scc(-c3ccc(Cl)cc3)c12` registered a Kd of 28.2 µM.

Consider `Cn1nnnc1Sc1ncnc2scc(-c3ccc(Br)cc3)c12`, for which the Kd was 39.8 µM.

`Cc1cccc(-c2csc3ncnc(Sc4nnnn4C)c23)c1` returned a Kd of 11.2 µM.

For the molecule `COc1ccccc1-c1csc2ncnc(Sc3nnnn3C)c12`, the affinity, expressed as Kd, was 79.4 µM.

In turn, `Cn1nnnc1Sc1ncnc2scc(-c3ccc(F)cc3)c12` returned a Kd of 12.6 µM.

The molecule `Cn1nnnc1Sc1ncnc2scc(-c3ccc(N)cc3)c12` showed a Kd of 5.62 µM.

`Cn1nnnc1Sc1ncnc2scc(-c3cccs3)c12` came in with a Kd of 2.82 µM.

Consider `Cn1nnnc1Sc1ncnc2scc(-c3ccc(C#N)cc3)c12`, for which binding was put at a Kd of 12.6 µM.

`Cn1nnnc1Sc1ncnc2scc(-c3cccc4ccccc34)c12` had a Kd of more than 100 µM.

As to `Cc1ccccc1-c1csc2ncnc(Sc3nnnn3C)c12`, the affinity, expressed as Kd, was 44.7 µM. This counts as double-digit micromolar.

Molecule `Cn1nnnc1Sc1ncnc2scc(-c3ccc4c(=O)ccoc4c3)c12` displayed a Kd of 1.99 µM.

Molecule `Cn1nnnc1Sc1ncnc2scc(-c3ccc4ccccc4c3)c12` came in with a Kd of 63.1 µM. This Kd is about 32-fold higher than that of the molecule before.

Turning to `Cn1nnnc1Sc1ncnc2scc(-c3cc4ccccc4o3)c12`, the Kd worked out at 2.82 µM.

In turn, `Cn1nnnc1Sc1ncnc2scc(-c3ccc([N+](=O)[O-])cc3)c12` showed a Kd of 6.31 µM.

As to `CS(=O)(=O)c1cccc(-c2csc3ncnc(NCCN)c23)c1`, the Kd is more than 100 µM.

As for `Cn1nnnc1Sc1ncnc2scc(-c3ccccc3[N+](=O)[O-])c12`, binding was characterised by a dissociation constant (Kd) of 11.2 µM.

In a further series the test system is STHdhQ111. Description: Cytoprotective activity in mouse STHdhQ111 cells assessed as protection against beta-amyloid-induced cell death at 10 nM to 1 uM by MTT assay.
Conditions: not given
The format is functional, cell-based.
For `CC(=O)c1cccc(-c2csc3ncnc(Sc4nnnn4C)c23)c1`, the outcome was Active.

Another series has as its system STHdhQ111. Description: Cytoprotective activity in mouse STHdhQ111 cells against serum free medium-induced apoptotic cell death assessed as inhibition of caspase-9 activation incubated for 16 hrs. The format is functional, cell-based.
Conditions: not given
Consider `Cn1nnnc1Sc1ncnc2scc(-c3ccc(F)cc3)c12`, for which the outcome was Active.

A further series relates to STHdhQ111. Description: Cytoprotective activity in mouse STHdhQ111 cells against serum free medium-induced apoptotic cell death assessed as inhibition of caspase-3 activation incubated for 16 hrs. The format is functional, cell-based.
Conditions: not given
Take `Cn1nnnc1Sc1ncnc2scc(-c3ccc(F)cc3)c12`: the outcome was Active.

In the next series the target is Huntingtin (Homo sapiens, UniProt P42858). The series can be described thus: Inhibition of GFP-fused Huntingtin protein Q103/Q25 mutant (unknown origin) […] assessed as protection against huntingtin protein aggregation incubated for 48 hrs by multiplexed assay based HTT f3(agr) method. To be noted: pc-12. It counts as cell-based.
Sequence of Huntingtin (P42858 whole entry, looked up, stated change not applied, the tested form may be a part): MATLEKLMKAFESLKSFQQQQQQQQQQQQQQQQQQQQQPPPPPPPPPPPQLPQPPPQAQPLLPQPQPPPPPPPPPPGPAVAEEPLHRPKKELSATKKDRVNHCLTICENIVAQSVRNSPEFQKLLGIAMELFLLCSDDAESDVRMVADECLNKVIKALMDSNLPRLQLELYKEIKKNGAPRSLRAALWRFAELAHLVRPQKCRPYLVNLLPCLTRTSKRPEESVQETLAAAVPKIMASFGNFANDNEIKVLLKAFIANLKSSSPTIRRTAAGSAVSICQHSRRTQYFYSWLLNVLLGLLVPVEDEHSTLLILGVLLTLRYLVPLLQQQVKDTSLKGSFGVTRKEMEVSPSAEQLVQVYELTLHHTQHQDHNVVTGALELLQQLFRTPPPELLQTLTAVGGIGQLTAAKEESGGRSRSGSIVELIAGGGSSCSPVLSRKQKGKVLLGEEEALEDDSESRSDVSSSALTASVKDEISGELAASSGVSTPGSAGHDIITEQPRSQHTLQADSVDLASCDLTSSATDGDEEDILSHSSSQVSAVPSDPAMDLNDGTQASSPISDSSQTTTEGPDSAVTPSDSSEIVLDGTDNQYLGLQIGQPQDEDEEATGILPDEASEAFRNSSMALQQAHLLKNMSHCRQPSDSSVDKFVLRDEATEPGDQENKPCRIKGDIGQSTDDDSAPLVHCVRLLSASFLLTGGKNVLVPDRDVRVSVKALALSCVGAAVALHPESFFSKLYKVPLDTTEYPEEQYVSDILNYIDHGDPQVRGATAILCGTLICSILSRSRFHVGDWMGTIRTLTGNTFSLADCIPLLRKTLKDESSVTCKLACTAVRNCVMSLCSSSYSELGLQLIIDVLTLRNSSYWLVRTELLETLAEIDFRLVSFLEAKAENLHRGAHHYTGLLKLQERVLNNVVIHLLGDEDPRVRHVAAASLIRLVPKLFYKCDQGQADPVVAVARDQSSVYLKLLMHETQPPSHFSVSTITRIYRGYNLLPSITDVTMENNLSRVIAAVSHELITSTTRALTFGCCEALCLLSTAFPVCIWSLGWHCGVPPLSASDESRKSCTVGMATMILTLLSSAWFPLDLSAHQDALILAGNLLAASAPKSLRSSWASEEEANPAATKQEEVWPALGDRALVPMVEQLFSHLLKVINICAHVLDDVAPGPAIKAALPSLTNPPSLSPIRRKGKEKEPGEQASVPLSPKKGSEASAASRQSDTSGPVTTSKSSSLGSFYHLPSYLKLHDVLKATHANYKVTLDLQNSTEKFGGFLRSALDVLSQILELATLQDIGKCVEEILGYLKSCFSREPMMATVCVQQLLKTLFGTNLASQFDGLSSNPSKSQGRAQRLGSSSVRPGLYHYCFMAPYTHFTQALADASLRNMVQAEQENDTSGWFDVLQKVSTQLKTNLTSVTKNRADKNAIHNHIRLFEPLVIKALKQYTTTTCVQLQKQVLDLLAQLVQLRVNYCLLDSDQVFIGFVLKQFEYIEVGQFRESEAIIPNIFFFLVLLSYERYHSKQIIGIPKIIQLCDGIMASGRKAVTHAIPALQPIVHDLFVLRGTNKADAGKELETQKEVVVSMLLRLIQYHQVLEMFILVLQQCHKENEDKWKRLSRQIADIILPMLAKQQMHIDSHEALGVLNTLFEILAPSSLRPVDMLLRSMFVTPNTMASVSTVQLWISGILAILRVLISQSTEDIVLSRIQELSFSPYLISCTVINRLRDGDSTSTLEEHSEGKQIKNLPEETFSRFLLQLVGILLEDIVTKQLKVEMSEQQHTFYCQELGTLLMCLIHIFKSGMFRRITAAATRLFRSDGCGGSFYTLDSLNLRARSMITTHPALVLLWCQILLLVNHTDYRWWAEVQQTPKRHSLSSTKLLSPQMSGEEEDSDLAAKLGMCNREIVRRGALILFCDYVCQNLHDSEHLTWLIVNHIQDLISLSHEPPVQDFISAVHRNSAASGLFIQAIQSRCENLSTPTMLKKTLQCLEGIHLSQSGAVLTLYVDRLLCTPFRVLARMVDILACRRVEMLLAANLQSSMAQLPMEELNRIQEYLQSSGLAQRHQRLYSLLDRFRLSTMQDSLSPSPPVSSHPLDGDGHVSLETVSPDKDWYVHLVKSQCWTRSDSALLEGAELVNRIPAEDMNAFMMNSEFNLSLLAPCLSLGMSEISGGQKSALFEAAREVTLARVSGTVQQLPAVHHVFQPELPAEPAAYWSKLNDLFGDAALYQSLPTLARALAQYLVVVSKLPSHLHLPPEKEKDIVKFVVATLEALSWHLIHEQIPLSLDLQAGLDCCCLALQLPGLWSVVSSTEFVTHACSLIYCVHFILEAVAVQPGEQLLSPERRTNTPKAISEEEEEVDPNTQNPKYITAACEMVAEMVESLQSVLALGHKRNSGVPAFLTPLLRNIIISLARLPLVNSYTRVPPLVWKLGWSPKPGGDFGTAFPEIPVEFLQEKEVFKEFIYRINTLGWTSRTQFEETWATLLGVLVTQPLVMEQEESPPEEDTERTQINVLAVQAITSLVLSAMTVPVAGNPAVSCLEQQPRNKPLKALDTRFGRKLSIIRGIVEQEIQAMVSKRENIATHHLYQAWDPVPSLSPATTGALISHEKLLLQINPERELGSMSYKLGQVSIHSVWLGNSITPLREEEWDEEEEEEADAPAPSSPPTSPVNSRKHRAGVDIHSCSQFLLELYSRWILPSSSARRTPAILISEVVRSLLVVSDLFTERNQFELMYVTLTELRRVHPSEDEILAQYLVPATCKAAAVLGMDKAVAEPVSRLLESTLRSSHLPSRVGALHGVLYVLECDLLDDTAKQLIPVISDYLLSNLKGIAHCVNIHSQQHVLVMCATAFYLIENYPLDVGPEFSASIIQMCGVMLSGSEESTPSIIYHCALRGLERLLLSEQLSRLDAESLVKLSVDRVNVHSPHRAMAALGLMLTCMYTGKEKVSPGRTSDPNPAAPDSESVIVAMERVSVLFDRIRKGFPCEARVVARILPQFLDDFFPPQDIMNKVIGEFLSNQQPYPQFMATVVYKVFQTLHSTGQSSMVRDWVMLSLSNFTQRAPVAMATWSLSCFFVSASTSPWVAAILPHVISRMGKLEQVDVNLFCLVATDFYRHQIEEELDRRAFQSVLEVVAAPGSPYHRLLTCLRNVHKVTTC
Consider `Cn1nnnc1Sc1ncnc2scc(-c3cccc(C(F)(F)F)c3)c12`, for which the AC50 (commonly the concentration at which the activity in the assay is half-maximal) worked out at 35.5 µM.

On to `Cn1nnnc1Sc1ncnc2scc(-c3ccccc3)c12`, for which the AC50 was 39.8 µM.

Take `Cn1nnnc1Sc1ncnc2scc(-c3ccc[nH]3)c12`: the AC50 was 31.6 µM.

As for `Cn1nnnc1Sc1ncnc2scc(-c3ccccc3F)c12`, the AC50 amounted to 35.5 µM.

With `COc1ccc(-c2csc3ncnc(Sc4nnnn4C)c23)cc1`, the AC50 is 39.8 µM.

Turning to `Cn1nnnc1Sc1ncnc2scc(-c3cccc([N+](=O)[O-])c3)c12`, the concentration at half-maximal activity (AC50) was 35.5 µM.

As to `COc1cccc(-c2csc3ncnc(Sc4nnnn4C)c23)c1`, the AC50 was 28.2 µM.

Turning to `Cn1nnnc1Sc1ncnc2scc(-c3ccc4c(c3)OCO4)c12`, the AC50 turned out to be 20 µM.

As for `Cn1nnnc1Sc1ncnc2scc(-c3cccc4c3sc3ccccc34)c12`, the AC50 was 35.5 µM.

On to `Cn1nnnc1Sc1ncnc2scc(-c3cccc(N)c3)c12`, for which the AC50 came to 31.6 µM.

For `Cn1nnnc1Sc1ncnc2scc(-c3cccc(C#N)c3)c12`, the half-maximal activity concentration (AC50) is 35.5 µM.

As to `Cn1nnnc1Sc1ncnc2scc(-c3ccc(-c4ccccc4)cc3)c12`, the AC50 turned out to be 28.2 µM.

`Cn1nnnc1Sc1ncnc2scc(-c3cccc(Cl)c3)c12`: the AC50 is 22.4 µM.

Take `Cn1nnnc1Sc1ncnc2scc(Br)c12`: the AC50 came out at 5.01 µM.

Regarding `Cc1ccc(-c2csc3ncnc(Sc4nnnn4C)c23)cc1`, the concentration at half-maximal activity (AC50) is 39.8 µM.

On to `CC(=O)c1ccc(-c2csc3ncnc(Sc4nnnn4C)c23)cc1`, for which the AC50 was 39.8 µM.

As to `Cn1nnnc1Sc1ncnc2scc(I)c12`, the half-maximal activity concentration (AC50) stood at 35.5 µM.

With `Cn1nnnc1Sc1ncnc2scc(-c3ccc(C(=O)OC(C)(C)C)cc3)c12`, the AC50 came to 35.5 µM.

On to `Cn1nnnc1Sc1ncnc2scc(-c3cccc(Br)c3)c12`, for which the AC50 amounted to 35.5 µM.

As for `Cn1nnnc1Sc1ncnc2scc(-c3ccc(S(C)(=O)=O)cc3)c12`, the AC50 was determined as 15.8 µM.

For `Cn1nnnc1Sc1ncnc2scc(-c3cccc(F)c3)c12`, the AC50 stood at 14.1 µM.

With `Cn1nnnc1Sc1ncnc2scc(-c3cccc(S(C)(=O)=O)c3)c12`, the AC50 amounted to 39.8 µM.

On to `Cn1nnnc1Sc1ncnc2scc(-c3ccccc3C(F)(F)F)c12`, for which the AC50 came out at 28.2 µM.

For the molecule `Cn1nnnc1Sc1ncnc2scc(-c3ccsc3)c12`, the AC50 was determined as 35.5 µM.

For the molecule `Cn1nnnc1Sc1ncnc2scc(-c3ccc(C(F)(F)F)cc3)c12`, the AC50 was 35.5 µM.

As to `Cn1nnnc1Sc1ncnc2scc(-c3ccc(Cl)cc3)c12`, the AC50 was 39.8 µM.

`Cn1nnnc1Sc1ncnc2scc(-c3ccc(Br)cc3)c12`: the AC50 is 35.5 µM.

Consider `Cc1cccc(-c2csc3ncnc(Sc4nnnn4C)c23)c1`, for which the AC50 is 35.5 µM.

As to `CC(=O)c1cccc(-c2csc3ncnc(Sc4nnnn4C)c23)c1`, the AC50 is 28.2 µM.

Turning to `COc1ccccc1-c1csc2ncnc(Sc3nnnn3C)c12`, the AC50 worked out at 31.6 µM.

Consider `Cn1nnnc1Sc1ncnc2scc(-c3ccc(F)cc3)c12`, for which the half-maximal activity concentration (AC50) is 20 µM.

Regarding `Cn1nnnc1Sc1ncnc2scc(-c3cccs3)c12`, the AC50 amounted to 35.5 µM.

As for `Cn1nnnc1Sc1ncnc2scc(-c3ccc(C#N)cc3)c12`, the AC50 turned out to be 35.5 µM.

For the molecule `Cn1nnnc1Sc1ncnc2scc(-c3cccc4ccccc34)c12`, the AC50 is 35.5 µM.

Turning to `Cn1nnnc1Sc1ncnc2scc(-c3ccc4c(=O)ccoc4c3)c12`, the AC50 came out at 35.5 µM.

For `Cn1nnnc1Sc1ncnc2scc(-c3ccc4ccccc4c3)c12`, the AC50 amounted to 15.8 µM.

For `Cn1nnnc1Sc1ncnc2scc(-c3cc4ccccc4o3)c12`, the AC50 was determined as 7.94 µM.

For the molecule `Cn1nnnc1Sc1ncnc2scc(-c3ccc([N+](=O)[O-])cc3)c12`, the AC50 is 35.5 µM.

In the case of `Cn1nnnc1Sc1ncnc2scc(-c3ccccc3[N+](=O)[O-])c12`, the concentration at half-maximal activity (AC50) turned out to be 15.8 µM.

Test system in another series: not listed separately
Description: Stability in mouse liver microsomes assessed as parent compound remaining at 5 uM incubated for 60 mins in presence of NADPH. It counts as ADME. To be noted: read-out: Stability.
Take `Cn1nnnc1Sc1ncnc2scc(-c3cccc(S(C)(=O)=O)c3)c12`: the remaining at 1 h, 5 µM was 70%.

Test system in another series: not listed separately
Description: Stability in mouse liver microsomes assessed as parent compound remaining at 1 uM incubated for 60 mins in absence of NADPH. It counts as ADME. To be noted: read-out: Stability.
For the molecule `CC(=O)c1ccc(-c2csc3ncnc(Sc4nnnn4C)c23)cc1`, the remaining at 1 h, 1 µM was found to be 91%.

On to `Cn1nnnc1Sc1ncnc2scc(-c3cccs3)c12`, for which the remaining at 1 h, 1 µM is 88%.
